Here are results for 2 compounds from patent US3997517A, “Cyclic somatostatin disulfide analogues” (American Home Products Corporation, priority 1976, dated 1976).

Holding throughout (assay type): in vivo
The test system of one experiment is blood serum insulin. Briefly: Blood serum insulin in Nembutal-treated rats, radioimmunoassay. The following applies: Nembutal 50 mg/kg i.p., blood sampled 15 min later. The protocol:
(§1) The in vivo activity of the cyclic somatostatin disulfide analogues of this invention was established with cyclic somatostatin disulfide as a representative member of the family of compounds by comparing the blood serum growth hormone, glucagon and insulin concentrations found in rats grouped for control, somatostatin and cyclic somatostatin disulfide comparison. The rats, weighing between 200 and 250 grams were treated with Nembutal, 50 milligrams per kilogram intraperitoneally. After five minutes the somatostatin, control and cyclic somatostatin disulfide administrations were made subcutaneously. The rats blood was sampled fifteen minutes later and the growth hormone, glucagon and insulin levels were determined by radioimmunoassay.

Experiment [1] has as its system blood serum growth hormone. The experiment in a line: Blood serum growth hormone in Nembutal-treated rats, radioimmunoassay. The following applies: Nembutal 50 mg/kg i.p., blood sampled 15 min later, control 291±47, *p < 0.01. The protocol: as §1
In another experiment the test system is blood serum glucagon. The experiment in a line: Blood serum glucagon in Nembutal-treated rats, radioimmunoassay. The following applies: Nembutal 50 mg/kg i.p., blood sampled 15 min later. How it is done:
as §1

Regarding `C[C@@H]1NC(=O)[C@@H]2CSSC[C@H](NC(=O)CNC1=O)C(=O)N[C@@H](CCCCN)C(=O)N[C@@H](CC(N)=O)C(=O)N[C@@H](Cc1ccccc1)C(=O)N[C@@H](Cc1ccccc1)C(=O)N[C@@H](Cc1c[nH]c3ccccc13)C(=O)N[C@@H](CCCCN)C(=O)N[C@@H]([C@@H](C)O)C(=O)N[C@@H](Cc1ccccc1)C(=O)N[C@@H]([C@@H](C)O)C(=O)N[C@@H](CO)C(=O)N2` [Example IV, Cyclo-L-cysteinyl-L-alanyl-glycyl-L-cysteinyl-L-lysyl-L-asparaginyl-L-phenyl-alanyl-L-phenylalanyl-L-tryptophyl-L-lysyl-L-threonyl-L-phenylalanyl-L-threonyl-L-serine (1-4 disulfide)], the Insulin in the experiment with blood serum insulin (dose 3000 μg/kg subcutaneously, control 272±39) was found to be 308 ± 30 µU/mL. In experiment [1] (dose 3000 μg/kg subcutaneously), this compound had a GH of 40 ± 4 ng/mL. This compound came in with a Glucagon in the experiment with blood serum glucagon (dose 3000 μg/kg subcutaneously, control 33±2) of 29.7 ± 4 pg/mL.
In the case of `C[C@H](N)C(=O)NCC(=O)N[C@H]1CSSC[C@@H](C(=O)O)NC(=O)[C@H](CO)NC(=O)[C@H]([C@@H](C)O)NC(=O)[C@H](Cc2ccccc2)NC(=O)[C@H]([C@@H](C)O)NC(=O)[C@H](CCCCN)NC(=O)[C@H](Cc2c[nH]c3ccccc23)NC(=O)[C@H](Cc2ccccc2)NC(=O)[C@H](Cc2ccccc2)NC(=O)[C@H](CC(N)=O)NC(=O)[C@H](CCCCN)NC1=O` [Somatostatin, somatostatin], in the experiment on blood serum insulin (dose 200 μg/kg subcutaneously, control 272±39, +p < 0.05), the Insulin was determined as 161 ± 21 µU/mL. This compound displayed a GH in experiment [1] (dose 200 μg/kg subcutaneously) of 40 ± 4 ng/mL. Further, the Glucagon in the experiment on blood serum glucagon (dose 200 μg/kg subcutaneously, control 33±2, *p < 0.01) is 17 ± 2 pg/mL.
